Test results as given in PubChem BioAssay (NCI).
“And” between values parts separate entries of the source, which are not always exact repeats. Equal entries are not always repeated.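 Briefly, cells in 96-well plates were exposed to five compound concentrations for 48 h, and endpoints were estimated by linear interpolation. At the TGI there is no net growth.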

Legend:
Experiment in all cases: NCI-60 cell line screen, 48 h
OVCAR-8 ovarian = system: OVCAR-8 ovarian
NCI-H23 lung = system: NCI-H23 lung
EKVX NSCLC = system: EKVX NSCLC
UO-31 renal = system: UO-31 renal
DU-145 prostate = system: DU-145 prostate
MALME-3M melanoma = system: MALME-3M melanoma
HS 578T breast = system: HS 578T breast
A498 renal = system: A498 renal
SNB-19 CNS = system: SNB-19 CNS
MCF7 breast = system: MCF7 breast
KM12 colon = system: KM12 colon
SW-620 colon = system: SW-620 colon
CAKI-1 renal = system: CAKI-1 renal
OVCAR-4 ovarian = system: OVCAR-4 ovarian
NCI-H522 lung = system: NCI-H522 lung
A549 NSCLC = system: A549 NSCLC
MOLT-4 leukemia = system: MOLT-4 leukemia
HL-60(TB) leukemia = system: HL-60(TB) leukemia
SF-295 CNS = system: SF-295 CNS
M14 melanoma = system: M14 melanoma
NCI/ADR-RES ovarian = system: NCI/ADR-RES ovarian
U251 CNS = system: U251 CNS
SF-539 CNS = system: SF-539 CNS
K-562 leukemia = system: K-562 leukemia
T-47D breast = system: T-47D breast
HOP-92 NSCLC = system: HOP-92 NSCLC
SK-MEL-2 melanoma = system: SK-MEL-2 melanoma
HCT-116 colon = system: HCT-116 colon
UACC-62 melanoma = system: UACC-62 melanoma
HT29 colon = system: HT29 colon
RXF 393 renal = system: RXF 393 renal
NCI-H460 lung = system: NCI-H460 lung
UACC-257 melanoma = system: UACC-257 melanoma
OVCAR-3 ovarian = system: OVCAR-3 ovarian
OVCAR-5 ovarian = system: OVCAR-5 ovarian
SN12C renal = system: SN12C renal
MDA-MB-231 breast = system: MDA-MB-231 breast
SR leukemia = system: SR leukemia
CCRF-CEM leukemia = system: CCRF-CEM leukemia
IGROV1 ovarian = system: IGROV1 ovarian
SK-MEL-5 melanoma = system: SK-MEL-5 melanoma
LOX IMVI melanoma = system: LOX IMVI melanoma
HOP-62 NSCLC = system: HOP-62 NSCLC
786-0 renal = system: 786-0 renal
SK-OV-3 ovarian = system: SK-OV-3 ovarian
COLO 205 colon = system: COLO 205 colon
PC-3 prostate = system: PC-3 prostate
ACHN renal = system: ACHN renal
BT-549 breast = system: BT-549 breast
MDA-MB-435 = system: MDA-MB-435
MDA-N = system: MDA-N
TK-10 renal = system: TK-10 renal
SNB-75 CNS = system: SNB-75 CNS
NCI-H226 lung = system: NCI-H226 lung
HCT-15 colon = system: HCT-15 colon
SK-MEL-28 melanoma = system: SK-MEL-28 melanoma
SF-268 CNS = system: SF-268 CNS
HCC-2998 colon = system: HCC-2998 colon
RPMI-8226 leukemia = system: RPMI-8226 leukemia

COc1cc(S(=O)(=O)Nc2nc(-c3ccc(N)cc3)cs2)ccc1Cl
TGI (OVCAR-8 ovarian): > 100 µM | TGI (NCI-H23 lung): > 100 µM | TGI (EKVX NSCLC): > 100 µM | TGI (UO-31 renal): > 100 µM | TGI (DU-145 prostate): > 100 µM | TGI (MALME-3M melanoma): > 100 µM | TGI (HS 578T breast): > 100 µM | TGI (A498 renal): > 100 µM | TGI (SNB-19 CNS): > 100 µM | TGI (MCF7 breast): > 100 µM | TGI (KM12 colon): > 100 µM | TGI (SW-620 colon): > 100 µM | TGI (CAKI-1 renal): > 100 µM | TGI (OVCAR-4 ovarian): > 100 µM | TGI (NCI-H522 lung): > 100 µM | TGI (A549 NSCLC): > 100 µM | TGI (MOLT-4 leukemia): > 100 µM | TGI (HL-60(TB) leukemia): > 100 µM | TGI (SF-295 CNS): > 100 µM | TGI (M14 melanoma): > 100 µM | TGI (NCI/ADR-RES ovarian): > 100 µM | TGI (U251 CNS): > 100 µM | TGI (SF-539 CNS): > 100 µM | TGI (K-562 leukemia): > 100 µM | TGI (T-47D breast): > 100 µM | TGI (HOP-92 NSCLC): > 100 µM | TGI (SK-MEL-2 melanoma): > 100 µM | TGI (HCT-116 colon): > 100 µM | TGI (UACC-62 melanoma): > 100 µM | TGI (HT29 colon): > 100 µM | TGI (RXF 393 renal): > 100 µM | TGI (NCI-H460 lung): > 100 µM | TGI (UACC-257 melanoma): > 100 µM | TGI (OVCAR-3 ovarian): > 100 µM | TGI (OVCAR-5 ovarian): > 100 µM | TGI (SN12C renal): > 100 µM | TGI (MDA-MB-231 breast): > 100 µM | TGI (SR leukemia): > 100 µM | TGI (CCRF-CEM leukemia): > 100 µM | TGI (IGROV1 ovarian): > 100 µM | TGI (SK-MEL-5 melanoma): > 100 µM | TGI (LOX IMVI melanoma): > 100 µM | TGI (HOP-62 NSCLC): > 100 µM | TGI (786-0 renal): > 100 µM | TGI (SK-OV-3 ovarian): > 100 µM | TGI (COLO 205 colon): > 100 µM | TGI (PC-3 prostate): > 100 µM | TGI (ACHN renal): > 100 µM | TGI (BT-549 breast): > 100 µM | TGI (MDA-MB-435): > 100 µM | TGI (MDA-N): > 100 µM | TGI (TK-10 renal): > 100 µM | TGI (SNB-75 CNS): > 100 µM | TGI (NCI-H226 lung): > 100 µM | TGI (HCT-15 colon): > 100 µM | TGI (SK-MEL-28 melanoma): > 100 µM | TGI (SF-268 CNS): > 100 µM

Cc1ccc(CC2(OCCN(C)C)CCC(C(C)(C)C)CC2)cc1 (centres undefined)
TGI (OVCAR-8 ovarian): 16.1 µM and 24.1 µM | TGI (NCI-H23 lung): 25.6 µM and 24.4 µM | TGI (EKVX NSCLC): 21.6 µM and 28 µM | TGI (UO-31 renal): 14.6 µM and 19 µM | TGI (DU-145 prostate): 15.1 µM and 17.1 µM | TGI (MALME-3M melanoma): 3.36 µM and 3.64 µM | TGI (HS 578T breast): 28.4 µM and 21.2 µM | TGI (A498 renal): 28.6 µM and 27.1 µM | TGI (SNB-19 CNS): 16.6 µM and 16.8 µM | TGI (MCF7 breast): 7.74 µM and 8.45 µM | TGI (KM12 colon): 13 µM and 10.4 µM | TGI (SW-620 colon): 5.84 µM and 8 µM | TGI (CAKI-1 renal): 17.7 µM and 15.3 µM | TGI (OVCAR-4 ovarian): 15.2 µM and 16.6 µM | TGI (NCI-H522 lung): 9.28 µM and 10.8 µM | TGI (A549 NSCLC): 14 µM and 20.4 µM | TGI (MOLT-4 leukemia): 4.11 µM and 4.8 µM | TGI (HL-60(TB) leukemia): 6.24 µM and 5.02 µM | TGI (SF-295 CNS): 9.86 µM and 9.5 µM | TGI (HCC-2998 colon): 4.26 µM and 4.73 µM | TGI (M14 melanoma): 3.36 µM and 3.35 µM | TGI (NCI/ADR-RES ovarian): 21.5 µM and 22.3 µM | TGI (U251 CNS): 6.39 µM and 10.2 µM | TGI (RPMI-8226 leukemia): 4 µM and 4.96 µM | TGI (SF-539 CNS): 4.55 µM and 8.81 µM | TGI (K-562 leukemia): 3.97 µM and 4.45 µM | TGI (T-47D breast): 8.34 µM and 6.33 µM | TGI (SK-MEL-2 melanoma): 4.96 µM and 5.35 µM | TGI (HCT-116 colon): 6.73 µM and 6.24 µM | TGI (UACC-62 melanoma): 5.48 µM and 10 µM | TGI (HT29 colon): 5.15 µM and 5.9 µM | TGI (NCI-H460 lung): 3.71 µM and 3.57 µM | TGI (UACC-257 melanoma): 7.65 µM and 4.74 µM | TGI (OVCAR-3 ovarian): 25.8 µM and 27.2 µM | TGI (OVCAR-5 ovarian): 14 µM and 13.9 µM | TGI (SN12C renal): 17.6 µM and 17.8 µM | TGI (MDA-MB-231 breast): 19 µM and 18.8 µM | TGI (SR leukemia): 4.67 µM and 5.58 µM | TGI (CCRF-CEM leukemia): 7.46 µM and 7.98 µM | TGI (IGROV1 ovarian): 19.4 µM and 21.5 µM | TGI (SK-MEL-5 melanoma): 2.94 µM and 2.97 µM | TGI (LOX IMVI melanoma): 3 µM and 3.97 µM | TGI (HOP-62 NSCLC): 11.1 µM and 8.4 µM | TGI (786-0 renal): 4.45 µM and 3.7 µM | TGI (SK-OV-3 ovarian): 20.9 µM and 23.6 µM | TGI (COLO 205 colon): 3.98 µM and 3 µM | TGI (PC-3 prostate): 13.7 µM and 15.2 µM | TGI (ACHN renal): 19.1 µM and 20.5 µM | TGI (BT-549 breast): 16.1 µM and 19.8 µM | TGI (MDA-MB-435): 5.79 µM and 5.96 µM | TGI (MDA-N): 6.96 µM and 5.28 µM | TGI (TK-10 renal): 17.2 µM and 19.6 µM | TGI (SNB-75 CNS): 21.9 µM and 20.3 µM | TGI (NCI-H226 lung): 15.6 µM and 15.4 µM | TGI (HCT-15 colon): 14.9 µM and 15.4 µM | TGI (SK-MEL-28 melanoma): 4.08 µM and 4.04 µM | TGI (SF-268 CNS): 27.9 µM and 23.5 µM
